We go through two molecules from patent US7112422B2, “Fluorometric assay for detecting nucleic acid cleavage” (Georgetown University, priority 1994, dated 2006).

{FITC} = fluorescein isothiocyanate through the Aminolink 2 six-carbon amine linker

Series [1] concerns the target T1, BamHI restriction endonuclease (Bacillus amyloliquefaciens, UniProt P23940).
T1 construct: purchased New England Biolab
The series is described as follows: BamHI cleavage of FITC-labeled DNA substrate, continuous fluorometric (dequenching) assay. The series is classed as biochemical, Bacillus amyloliquefaciens H. Conditions: 10 units BamHI in 100 μl, 37° C. As for the experimental part:
Spectroscopic Measurements: Absorbance and absorption spectra were measured with a Hewlett-Packard 8450A diode array spectrophotometer. Using the extinction coefficient of fluorescein (E-78,000) at 492 nm, the concentration and total moles of fluorescein were calculated (Chen and Scott, supra). The amount of fluorescein conjugated to the oligonucleotide was estimated by subtracting the moles of fluorescein multiplied by the extinction coefficient of FITC at 260 nm, 23,000 M^−1 cm^−1, from the total absorbance at 260 nm. The remaining AU260 should be proportional to the DNA content. Steady-state fluorescence spectra and intensity were recorded with an SLM 8000 spectrophotofluorometer with 10-mm Glan-Thompson polarizers. Fluorescence emission measurements were performed under “magic angle” emission conditions (Spencer and Weber, J. Chem. Phys. 52:1654–1663 (1970)). A cuvette with a 3-mm excitation path length was used for all experiments. The absorbance of all fluorescence samples was less than 0.1 at the wavelength of excitation to avoid inner-filter effects. The temperatures of the samples were regulated with a Neslab Instruments, Inc., T.E.Q. temperature controller and a PBC4 bath cooler.
The extent of cleavage by BamHI was calculated from the fluorescence data utilizing the following equation:
[formula] where [DNA]c is the concentration of cleaved DNA, Ft is the fluorescence intensity at time, t, F∞is the fluorescence intensity at the plateau, F0 is the initial fluorescence intensity, and [DNA]i is the initial concentration of DNA. Results and Discussion
(§1) Cleavage reactions were also examined as a function of substrate concentration with a fixed concentration of BamHI (10 units in 100 μl total reaction volume). The reactions were initiated by the addition of BamHI and stopped by the addition of 25 mM EDTA 11 minutes after the enzyme was added. The reaction mixtures were subjected to native 20% polyacrylamide gel analysis. Since the DNA substrate was labeled with FITC, a photograph of the gel was taken under ultraviolet illumination (using a Kodak green filter) without staining the gel with ethidium bromide. Therefore, only the fluorescent-labeled DNA fragments were visualized, resulting in two DNA bands: a substrate band and a product band (5′-FITC-NH-CCCCG). A direct comparison was made between the data obtained from the fluorometric assay and the photographic data obtained from gel electrophoretic analysis. The kinetics of BamHI cleavage reactions as a function of DNA substrate concentration measured by fluorometric analysis are illustrated in FIG. 7A. […] Similarly, the reaction at 0.36 μM substrate reached near completion as shown by both the fluorescence (curve B, FIG. 7A) and the gel data (lane B, FIG. 7B). Higher DNA substrate concentrations, 0.72 μM (curve C, FIG. 7A) and 1.08 μM (curve D, FIG. 7A), yielded incomplete cleavage reactions (observed by changes in fluorescence intensity). […] It appears that the initial velocity of curve D is also slower than that of curve C. […] As expected, the PAGE data (FIG. 7B) show higher product formation in lane C compared to that of lane D.
The fractions of uncleaved and cleaved DNA were calculated from the fluorescence data utilizing equation 1 (see Methods). Fractions of uncleaved and cleaved DNA were also estimated from a photograph taken from the polyacrylamide gel. […]

The target in series [2] is T1, BamHI restriction endonuclease. Put plainly: BamHI cleavage of FITC-labeled DNA substrate, native 20% PAGE with densitometry. The format is biochemical, Bacillus amyloliquefaciens H. Conditions: 10 units BamHI in 100 μl, 37° C. The procedure: as §1
The fractions of uncleaved and cleaved DNA were calculated from the fluorescence data utilizing equation 1 (see Methods). Fractions of uncleaved and cleaved DNA were also estimated from a photograph taken from the polyacrylamide gel. Utilizing a Hewlett Packard ScanJet IIp and the densitometry program Scan Analysis 68000 (BioSoft), the peaks obtained from each of the bands (substrate and products) were integrated and ratioed to obtain the relative amount of cleavage.

Series [3] addresses T2, HIV-IN (Human immunodeficiency virus type 1 group M subtype B, UniProt P12497).
T2 construct: The wild-type HIV-integrase protein was obtained from Dr. Robert Craigie; made in house; host or cells: Escherichia coli
Put plainly: HIV-IN cleavage of fluorogenic substrate monitored by FRET. The format is biochemical. The procedure:
FIGS. 10A and 10B: FIG. 10A is a graph depicting steady-state emission spectra of a fluorogenic substrate in the presence and absence of HIV-IN. Curve A depicts the emission spectrum of 4 pmol of fluorogenic substrate in 400 μl reaction buffer containing 25 mM HEPES, pH 7.5, 50 mM NaCl, 2 mM DTT, and 5% glycerol at 37° C. Curve B depicts the emission spectrum of the same substrate digested with 40 pmol HIV-IN for 1 hour. Curve C depicts the difference emission spectrum of curve B and curve A. Emission spectra were recorded with an excitation wavelength at 460 nm.
FIGS. 11A, 11B, and 11C: FIG. 11A is a graph depicting the kinetics of an HIV-IN cleavage reaction of a fluorogenic substrate monitored by FRET. The DNA cleavage reaction was initiated by the addition of HIV-IN to a preincubated reaction mixture containing 4 pmol of substrate. The conditions for the reactions are the same as in FIG. 10. Changes in fluorescence intensity were monitored with excitation and emission wavelengths of 460 and 510 nm, respectively. Mn^2+ quenched the fluorescence intensity of the substrate in the absence of the enzyme; thus, the kinetic data presented in this figure were intensity normalized according to the intensity ratio of the substrate in the presence of Mg^2+ and in the presence of Mn^2+. FIG. 11B depicts the kinetics of an HIV-IN cleavage reaction of a fluorogenic substrate monitored by denaturing polyacrylamide gel electrophoresis (PAGE). The time course of a ^32P-5′-labeled fluorescent substrate was determined by radiographic assays. […] Reaction mixtures were analyzed by denaturing gel electrophoresis. Results were quantitated by utilizing a Hewlet-Packard ScanJet IIp and the densitometry program Scan Analysis 68020 (BioSoft). […]
Spectroscopic Measurements: Absorbance and absorption spectra were measured with a Hewlett-Packard 8450A diode array spectrophotometer. Steady-state fluorescence spectra and intensity were recorded with an SLM 8000 spectrophotofluorometer with 10-mm Glan-Thompson polarizers. […]

Setting [4] is: Curve A, [DNA] 0.21 μM, stopped after 11 minutes.
The mark [5] stands for this setting: Curve B, [DNA] 0.36 μM, stopped after 11 minutes.
Setting [6] is: Curve C, [DNA] 0.72 μM, stopped after 11 minutes.
[7] abbreviates: Curve D, [DNA] 1.08 μM, stopped after 11 minutes.
The mark [8] stands for this setting: Curve E, [DNA] 0.18 μM, in the presence of 25 mM EDTA.

T1 sequence (P23940 whole entry): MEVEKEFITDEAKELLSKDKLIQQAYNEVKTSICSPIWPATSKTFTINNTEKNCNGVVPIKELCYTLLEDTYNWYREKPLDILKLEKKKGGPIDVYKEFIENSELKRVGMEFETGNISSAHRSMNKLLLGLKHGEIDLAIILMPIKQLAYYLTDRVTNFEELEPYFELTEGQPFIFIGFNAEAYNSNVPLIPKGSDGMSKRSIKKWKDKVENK

For the molecule “5′-FITC-NH-CCCCGGATCCACCC-3′ (SEQ ID NO:1) annealed to 3′-GGGGCCTAGGTGGG-5′ (SEQ ID NO:2) (antisense GGGTGGATCCGGGG; sense: DNA, 5' {FITC}, backbone and methylation of C not given here; antisense: DNA, backbone and methylation of C not given here; further chemistry not fully specified) [FITC-labeled DNA Substrates, 14-mer FITC-labeled oligonucleotide with the BamHI restriction site, annealed to its unlabeled complementary strand]”, the “% Cleavage Fluorescence Assay” value amounted to 100% in series [1] (setting [4]); 91.9% in series [1] (setting [5]); 59.5% in series [1] (setting [6]); 32.2% in series [1] (setting [7]); 0% in series [1] (setting [8]). Moreover, the “% Cleavage PAGE” value in series [2] (setting [4]) is 100%; in series [2] (setting [5]) it was 92.3%; in series [2] (setting [6]), 60.6%; in series [2] (setting [7]), 30.1%; in series [2] (setting [8]), 0%.

B1: F-D1/T1: 5′-TGAGTACCCGTGTGGAAAATCTCTAGCAGGGNCTATGGCGTCCCCTCTG (SEQ ID NO:3); E-D2: 3′-… (SEQ ID NO:4) (nucleic acid)
sense: TGAGTACCCGTGTGGAAAATCTCTAGCAGGGNCTATGGCGTCCCCTCTG
antisense: NACTGCTAGAGATTTTCCACACGGGTACTCA
modifications: FITC and EITC labels, chemistry not fully specified
notes: FITC-labeled 49-mer hybrid strand of HIV-1 U5 end annealed to EITC-labeled partial complementary strand
On to B1, for which the “estimated efficiency of the cleavage reaction by HIV-IN” value in series [3] (4 pmol substrate, 40 pmol HIV-IN, 1 hour, 37° C., in the presence of Mg2+, relative to DNase I digestion) was 35%. Also, in series [3] (7.5 mM Mg2+ vs 7.5 mM Mn2+, end of a 60 minute reaction, intensity normalized), the “changes in donor fluorescence with Mg2+ relative to Mn2+” value was “approximately 3 times”. Also, the “cleavage of substrate by integrase (increase in fluorescence intensity)” value in series [3] (in the presence of 20 mM EDTA, 37° C.) is listed as “not cleaved”.
